Columns and labels:
[1] = test system: WKY rat; assay: Forced swimming test using rat; assay type: in vivo; conditions: acute administration, intravenous, 30 minutes before test; 1.0 mg/kg; Figs. 8, 9 and 10
Procedure: In a forced swimming test, AMPA receptor-binding compounds K-2 and K-4 were dissolved in 100% DMSO (Nacalai Tesque, Inc. Japan) so as to have a concentration of 2.1 mM, were diluted with saline immediately before being administered (15% DMSO, 320 µM) and were intravenously administered to the rat with an administered amount of 5 µl/weight (g) such that the administered amount fell within a range of 1 mg/kg to 1.5 mg/kg.
In all animal experiments, the deliberation and the approval of the animal experiment committee in Yokohama City University were received (approval number: F-A-15-051). As rats, adult male Wistar rats which were 6 to 10 weeks old and Wistar Kyoto rats (WKY rats) which were depression model rats (Charles River, Japan) were used. In order to acquire a route for the repeated administration of K-2, a jugular vein cannula indwelling surgery was performed a week before the experiment. The rat was made to fall sleep with isoflurane (DS Pharma Animal Health, Japan), and thereafter while anesthesia was maintained at an isoflurane concentration of 1.5% (air 2 L/minute), the jugular vein cannula indwelling surgery was performed. The skin of the neck was incised about 3 cm such that subcutaneous fat was opened, and thus the jugular vein was exposed. A needle to which a cannula tube was fitted was made to penetrate the jugular vein, then the cannula tube was removed from the needle and the tip of the cannula tube was inserted 2.5 cm into the jugular vein so as to be fixed near the insertion portion with sutures. The opposite side of the cannula tube was exposed to the outside of the body through the back of the rat, a plug was fitted so as to prevent backflow and the opened skin was sutured. After the completion of the surgery, the rat was returned to a home cage.
The forced swimming test was performed in a pre-administration experiment on the day before the administration of the drug, in an acute administration experiment on the first day of the administration of the drug and in a chronic administration experiment on the seventh day of the administration of the drug. […]

[2] = test system: AMPA receptors; assay: AMPA receptor binding test (electrophysiological verification, whole-cell recording of AMPA current in acute hippocampal section); assay type: cell-based, SD rats; conditions: pyramidal cell in CA1, compound administered for 15 minutes, Fig. 2
Procedure: Male SD rats which were 7 to 8 weeks old were used. The rat was decapitated under anesthesia with isoflurane, and an acute brain section which included the hippocampus and whose thickness was 400 µm was produced with a vibratome (VT1000; Leica Camera AG). The section was left in the ACSF at room temperature for 60 minutes, and then an AMPA current was measured by a whole-cell recording method. Under conditions in which the ACSF was refluxed at a rate of 3 ml/minute, only the AMPA current was isolated by administration of picrotoxin and APV. An exciting electrode was placed on a Schaffer fiber, and a recording electrode was placed on a pyramidal cell in CA1. The whole-cell recording was performed with a potential fixed to -80 mV, and a stimulus of 100 microseconds was applied every 30 seconds. The AMPA current in a ground state was recorded for 5 minutes, then K-2 or K-4 was administered for 15 minutes and thereafter the AMPA current was recorded for 30 minutes. When the section was left and when the section was refluxed, the ACSF was saturated with 95% O2/5% CO2 and was then used, and the composition of the ACSF was as follows; 119 mM NaCl, 2.5 mM KCl, 2.5 mM CaCl2, 1.5 mM MgSO4, 26 mM NaHCO3 and 1 mM NaH2PO4. […]

[3] = biological target: AMPA receptors; assay: AMPA receptor binding test (in vitro autoradiography method); parameters: species or system SD rats; conditions: acute rat brain section including the striatum; [^11C] K-2; Fig. 1
Procedure: As rats, adult male SD rats (Charles River, Japan) which were […] were used. An acute brain section which included the striatum and whose thickness was 200 µm was produced, was placed on a cell strainer and was left in an oxygenated ACSF (artificial cerebrospinal fluid) for 60 minutes. 12 ml of 100 µM PEPA (ACSF containing 1% DMSO) was adjusted, and [^11C] K-2 was added thereto so as to achieve 20 nM, and the resultant solution was left for 60 minutes. After the reaction, the resultant solution was washed with the ACSF for 10 seconds three times, and was finally washed with distilled water for 10 seconds. The cell strainer was cut out so as to be slightly larger than the brain section after the reaction, and was exposed to an imaging plate for 2 hours. The imaging plate after the exposure was imaged with Typhoon (GE Healthcare Japan) (resolution of 25 pixels).

CCN(CC)C(=O)COc1c(F)cc(SCCN(C)S(=O)(=O)c2ccccc2)cc1F [K-30, {4-[2-(benzenesulfonyl-methyl-amino)-ethylsulfanil]-2,6-difluoro-phenoxy}-N,N-diethyl-acetamide]
immobility time [1]: tendency that the immobility time was lower

CN(C)C(=O)COc1c(F)cc(SCCN(C)S(=O)(=O)c2ccccc2)cc1F [K-4, {4-[2-(benzenesulfonyl-methyl-amino)-ethylsulfanil]-2,6-difluoro-phenoxy}-N,N-dimethyl-acetamide]
binding affinity to the AMPA receptors [2]: indicated binding affinity

CN(CCSc1cc(F)c(OCC(N)=O)c(F)c1)S(=O)(=O)c1ccccc1 [K-2, {4-[2-(benzenesulfonyl-methyl-amino)-ethylsulfanil]-2,6-difluoro-phenoxy}-acetamide]
Kd [3]: 0.0479 µM
binding affinity to the AMPA receptors [2]: indicated binding affinity

CN(C)C(=O)COc1c(F)cc(SCCN(C)S(=O)(=O)c2ccc(F)cc2)cc1F [K-26, {4-[2-(4-fluoro-benzenesulfonyl-methyl-amino)-ethylsulfanil]-2,6-difluoro-phenoxy}-N,N-dimethyl-acetamide]
immobility time [1]: tendency that the immobility time was lower

CNC(=O)COc1c(F)cc(SCCN(C)S(=O)(=O)c2ccccc2)cc1F [K-32, {4-[2-(benzenesulfonyl-methyl-amino)-ethylsulfanil]-2,6-difluoro-phenoxy}-N-methyl-acetamide]
immobility time [1]: tendency that the immobility time was lower
